Measurements: ChEMBL document CHEMBL5154848, “Synthesis of heterocyclic ring-fused analogs of HMG499 as novel degraders of HMG-CoA reductase that lower cholesterol” (Eur J Med Chem, 2022)
pEC50: −log10 of the molar value.

How the values were obtained:
Assay type in all cases: cell-based
[1] = Toxicity in human SV589 cells assessed as cholesterol accumulation in lysosome at 10 uM incubated for 16 hrs by immunofluorescence based confocal microscopy; conditions: sv-589, 16 h
[2] = molecular target: T1, 3-hydroxy-3-methylglutaryl-coenzyme A reductase (Cricetulus griseus, UniProt P00347); assay: Induction of degradation of hamster HMGCR (TM1-8)-GFP (1 to 346 residues) transfected in CHO-7 cells incubated for 16 hrs in sterol-depleted medium by fluorescence based microplate reader assay
T1 sequence (P00347 whole entry): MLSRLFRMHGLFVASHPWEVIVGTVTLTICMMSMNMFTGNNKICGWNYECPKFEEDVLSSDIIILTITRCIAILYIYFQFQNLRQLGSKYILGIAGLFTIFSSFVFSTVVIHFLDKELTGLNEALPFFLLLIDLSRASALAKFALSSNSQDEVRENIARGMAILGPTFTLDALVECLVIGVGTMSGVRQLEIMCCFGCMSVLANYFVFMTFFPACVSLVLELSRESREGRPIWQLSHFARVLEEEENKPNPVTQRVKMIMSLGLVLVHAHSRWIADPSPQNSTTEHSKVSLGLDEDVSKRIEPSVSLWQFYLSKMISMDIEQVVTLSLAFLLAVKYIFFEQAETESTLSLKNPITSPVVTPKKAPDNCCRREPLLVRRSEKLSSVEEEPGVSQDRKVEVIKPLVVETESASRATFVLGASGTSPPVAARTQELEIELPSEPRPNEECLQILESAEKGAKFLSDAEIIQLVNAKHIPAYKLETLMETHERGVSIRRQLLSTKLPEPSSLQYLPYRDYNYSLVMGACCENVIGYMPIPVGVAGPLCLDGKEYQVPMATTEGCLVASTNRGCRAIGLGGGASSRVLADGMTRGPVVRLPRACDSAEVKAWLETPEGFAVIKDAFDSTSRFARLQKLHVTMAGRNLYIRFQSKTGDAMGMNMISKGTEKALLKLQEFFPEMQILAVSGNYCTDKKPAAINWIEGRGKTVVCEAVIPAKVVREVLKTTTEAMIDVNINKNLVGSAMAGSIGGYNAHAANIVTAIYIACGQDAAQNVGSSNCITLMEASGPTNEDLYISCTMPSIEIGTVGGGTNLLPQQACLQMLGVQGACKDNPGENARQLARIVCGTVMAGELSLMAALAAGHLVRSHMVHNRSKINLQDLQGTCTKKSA

[3] = Toxicity in human SV589 cells assessed as cholesterol accumulation in lysosome at 2.5 uM incubated for 16 hrs by immunofluorescence based confocal microscopy; conditions: sv-589, 16 h

Row | SMILES | pEC50 [2] | Activity [1] | Activity [3]
1 | C[C@H](CCC(=O)O)[C@H]1CC[C@H]2[C@@H]3CC=C4C(C)(C)c5c(cnn5-c5ccccc5)C[C@]4(C)[C@H]3CC[C@]12C | 5.06 | Non-Toxic | –
2 | CC(=O)n1ncc2c1C(C)(C)C1=CC[C@H]3[C@@H]4CC[C@H]([C@H](C)CCC(=O)Nc5ccc(C)cc5)[C@@]4(C)CC[C@@H]3[C@@]1(C)C2 | 5.27 | – | –
3 | C[C@H](CCC(=O)O)[C@H]1CC[C@H]2[C@@H]3CC=C4C(C)(C)c5sc(N)nc5C[C@]4(C)[C@H]3CC[C@]12C | 5.31 | Non-Toxic | –
4 | CCN(CC)CCO[C@H]1CC[C@@]2(C)C(=CC[C@@H]3[C@@H]2CC[C@]2(C)C(=O)CC[C@@H]32)C1.Cl | – | – | Toxic
5 | C[C@H](CCC(=O)O)[C@H]1CC[C@H]2[C@@H]3CC=C4C(C)(C)c5nccnc5C[C@]4(C)[C@H]3CC[C@]12C | 5.30 | Non-Toxic | –
6 | C[C@H](CCCCC(C)(C)O)[C@H]1CC[C@H]2[C@@H]3[C@@H](O)C=C4C(C)(C)[C@@H](O)CC[C@]4(C)[C@H]3CC[C@]12C | 6.39 | Toxic | –
7 | C=CCC(O)(CC=C)CCC[C@@H](C)[C@H]1CC[C@H]2[C@@H]3[C@@H](O)C=C4C(C)(C)[C@@H](O)CC[C@]4(C)[C@H]3CC[C@]12C | 6.39 | Toxic | –
8 | CC(=O)n1ncc2c1C(C)(C)C1=CC[C@H]3[C@@H]4CC[C@H]([C@H](C)CCC(=O)Nc5nc6c(C)cccc6s5)[C@@]4(C)CC[C@@H]3[C@@]1(C)C2 | 4.36 | – | –
9 | Cc1nc2c(o1)C(C)(C)C1=CC[C@H]3[C@@H]4CC[C@H]([C@H](C)CCC(=O)N5CCOCC5)[C@@]4(C)CC[C@@H]3[C@@]1(C)C2 | 4.55 | – | –
10 | C=CCC(O)(CC=C)CCC[C@@H](C)[C@H]1CC[C@H]2[C@@H]3[C@@H](O)C=C4C(C)(C)[C@@H](O)CC[C@]4(C)[C@H]3CC[C@]12C.Cl | 6.37 | Toxic | –
11 | CC(=O)n1cnc2c1C(C)(C)C1=C[C@H](O)[C@H]3[C@@H]4CC[C@H]([C@H](C)CCC(=O)N5CCOCC5)[C@@]4(C)CC[C@@H]3[C@@]1(C)C2 | 5.09 | Toxic | –
12 | CCC(O)(CC)CCCC[C@@H](C)[C@H]1CC[C@H]2[C@@H]3[C@@H](O)C=C4C(C)(C)[C@@H](O)CC[C@]4(C)[C@H]3CC[C@]12C | 6.39 | Toxic | –
13 | CC(=O)n1ncc2c1C(C)(C)C1=CC[C@H]3[C@@H]4CC[C@H]([C@H](C)CCC(=O)Nc5ncc(C)s5)[C@@]4(C)CC[C@@H]3[C@@]1(C)C2 | 4.90 | – | –
14 | C[C@H](CCC(=O)N1CCOCC1)[C@H]1CC[C@H]2[C@@H]3CC=C4C(C)(C)c5nc(N)ncc5C[C@]4(C)[C@H]3CC[C@]12C | 5.08 | – | –
15 | C[C@H](CCC(=O)O)[C@H]1CC[C@H]2[C@@H]3CC=C4C(C)(C)c5nonc5C[C@]4(C)[C@H]3CC[C@]12C | 5.24 | Non-Toxic | –
16 | CC(=O)n1ncc2c1C(C)(C)C1=CC[C@H]3[C@@H]4CC[C@H]([C@H](C)CCC(=O)Nc5nc6ccccc6s5)[C@@]4(C)CC[C@@H]3[C@@]1(C)C2 | 4.50 | – | –
17 | CCC(O)(CC)CCC[C@@H](C)[C@H]1CC[C@H]2[C@@H]3[C@@H](O)C=C4C(C)(C)[C@@H](O)CC[C@]4(C)[C@H]3CC[C@]12C | 6.39 | Toxic | –
18 | C[C@H](CCCC(C)(C)O)[C@H]1CC[C@H]2[C@@H]3[C@@H](O)C=C4C(C)(C)[C@@H](O)CC[C@]4(C)[C@H]3CC[C@]12C | 6.39 | Toxic | –

Now from value to compound, other results behind:

Row | pEC50 [2] | SMILES | Activity [1] | Activity [3]
19 | 6.37 | CC(C)C(=O)n1cnc2c1C(C)(C)C1=CC[C@H]3[C@@H]4CC[C@H]([C@H](C)CCC(=O)N5CCOCC5)[C@@]4(C)CC[C@@H]3[C@@]1(C)C2 | Non-Toxic | –
20 | 5.69 | CCCNC(=O)CC[C@@H](C)[C@H]1CC[C@H]2[C@@H]3CC=C4C(C)(C)c5c(cnn5C(C)=O)C[C@]4(C)[C@H]3CC[C@]12C | – | –
21 | 5.90 | CC(=O)n1ncc2c1C(C)(C)C1=CC[C@H]3[C@@H]4CC[C@H]([C@H](C)CCC(=O)N5CCCCC5)[C@@]4(C)CC[C@@H]3[C@@]1(C)C2 | – | –
22 | 6.20 | CCC(O)(CC)CC[C@@H](C)[C@H]1CC[C@H]2[C@@H]3CC=C4C(C)(C)c5c(ncn5C(C)=O)C[C@]4(C)[C@H]3CC[C@]12C | Non-Toxic | –
23 | 6.28 | CCOC(=O)c1n[nH]c2c1C[C@@]1(C)C(=CC[C@H]3[C@@H]4CC[C@H]([C@H](C)CCC(=O)N5CCOCC5)[C@@]4(C)CC[C@@H]31)C2(C)C | – | –
24 | 5.40 | C[C@H](CCC(=O)O)[C@H]1CC[C@H]2[C@@H]3CC=C4C(C)(C)c5[nH]ncc5C[C@]4(C)[C@H]3CC[C@]12C | Non-Toxic | –
25 | 5.58 | CC(=O)n1ncc2c1C(C)(C)C1=CC[C@H]3[C@@H]4CC[C@H]([C@H](C)CCC(=O)O)[C@@]4(C)CC[C@@H]3[C@@]1(C)C2 | Non-Toxic | –
26 | 5.56 | CC(=O)n1ncc2c1C(C)(C)C1=CC[C@H]3[C@@H]4CC[C@H]([C@H](C)CCC(=O)NCCN5CCOCC5)[C@@]4(C)CC[C@@H]3[C@@]1(C)C2 | – | –
27 | 6.32 | CC(=O)n1ncc2c1C(C)(C)C1=CC[C@H]3[C@@H]4CC[C@H]([C@H](C)CCC(=O)NC5CCOCC5)[C@@]4(C)CC[C@@H]3[C@@]1(C)C2 | – | –
28 | 6.08 | C[C@H](CCC(=O)N1CCOCC1)[C@H]1CC[C@H]2[C@@H]3CC=C4C(C)(C)c5nnsc5C[C@]4(C)[C@H]3CC[C@]12C | – | –
29 | 6.12 | C=C(C)C(=O)n1cnc2c1C(C)(C)C1=CC[C@H]3[C@@H]4CC[C@H]([C@H](C)CCC(=O)N5CCOCC5)[C@@]4(C)CC[C@@H]3[C@@]1(C)C2 | Non-Toxic | –
30 | 6.19 | CCC(=O)n1cnc2c1C(C)(C)C1=CC[C@H]3[C@@H]4CC[C@H]([C@H](C)CCC(=O)N5CCOCC5)[C@@]4(C)CC[C@@H]3[C@@]1(C)C2 | Non-Toxic | –
31 | 6.14 | CC(C)C(=O)n1cnc2c1C(C)(C)C1=C[C@H](O)[C@H]3[C@@H]4CC[C@H]([C@H](C)CCC(=O)N5CCOCC5)[C@@]4(C)CC[C@@H]3[C@@]1(C)C2 | Toxic | –
32 | 5.32 | CC(=O)n1ncc2c1C(C)(C)C1=CC[C@H]3[C@@H]4CC[C@H]([C@H](C)CCC(=O)Nc5ncc([N+](=O)[O-])s5)[C@@]4(C)CC[C@@H]3[C@@]1(C)C2 | – | –
33 | 5.35 | CC(=O)n1ncc2c1C(C)(C)C1=CC[C@H]3[C@@H]4CC[C@H]([C@H](C)CCC(=O)Nc5ccccc5C)[C@@]4(C)CC[C@@H]3[C@@]1(C)C2 | – | –
34 | 6.01 | CC(=O)n1cnc2c1C(C)(C)C1=CC[C@H]3[C@@H]4CC[C@H]([C@H](C)CCCC(=O)N5CCOCC5)[C@@]4(C)CC[C@@H]3[C@@]1(C)C2 | – | –
35 | 6.37 | CC(=O)N1CCC(NC(=O)CC[C@@H](C)[C@H]2CC[C@H]3[C@@H]4CC=C5C(C)(C)c6c(cnn6C(C)=O)C[C@]5(C)[C@H]4CC[C@]23C)CC1 | – | –
36 | 6.28 | CCCC(=O)n1cnc2c1C(C)(C)C1=CC[C@H]3[C@@H]4CC[C@H]([C@H](C)CCC(=O)N5CCOCC5)[C@@]4(C)CC[C@@H]3[C@@]1(C)C2 | Non-Toxic | –
37 | 6.39 | CC(=O)n1cnc2c1C(C)(C)C1=CC[C@H]3[C@@H]4CC[C@H]([C@H](C)C(=O)N5CCOCC5)[C@@]4(C)CC[C@@H]3[C@@]1(C)C2 | – | –
38 | 6.55 | CC(=O)n1cnc2c1C(C)(C)C1=CC[C@H]3[C@@H]4CC[C@H]([C@H](C)CC(=O)N5CCOCC5)[C@@]4(C)CC[C@@H]3[C@@]1(C)C2 | – | –
39 | 5.74 | CCOC(=O)c1noc2c1C[C@@]1(C)C(=CC[C@H]3[C@@H]4CC[C@H]([C@H](C)CCC(=O)N5CCOCC5)[C@@]4(C)CC[C@@H]31)C2(C)C | – | –
40 | 6.09 | CNC(=O)CC[C@@H](C)[C@H]1CC[C@H]2[C@@H]3CC=C4C(C)(C)c5c(cnn5C(C)=O)C[C@]4(C)[C@H]3CC[C@]12C | – | –
41 | 5.96 | CC(=O)n1cnc2c1C(C)(C)C1=CC[C@H]3[C@@H]4CC[C@H]([C@H](C)CCCCC(=O)N5CCOCC5)[C@@]4(C)CC[C@@H]3[C@@]1(C)C2 | – | –
42 | 5.47 | Cc1nc2c(s1)C(C)(C)C1=CC[C@H]3[C@@H]4CC[C@H]([C@H](C)CCC(=O)O)[C@@]4(C)CC[C@@H]3[C@@]1(C)C2 | Non-Toxic | –
43 | 5.79 | CCNC(=O)CC[C@@H](C)[C@H]1CC[C@H]2[C@@H]3CC=C4C(C)(C)c5c(cnn5C(C)=O)C[C@]4(C)[C@H]3CC[C@]12C | – | –
